Test results taken from patent publication US20050038112A1, “Simplified sarcondictyn derivatives as anti-tumor agents” (priority 2001, published 2005).
Where two headings read alike, the source gives them in different places.

Tests used:
[1] = system: A2780 cells; test: Cytotoxicity (SRB colorimetric assay) on A2780 cells; assay type: cell-based; details: 72 h incubation, concentration inhibiting cell proliferation by 50%
Procedure: (§1) A2780 cells (2000/well) were seeded in multiwell plates (96 wells) in the presence of 200 μl of the complete medium RPMI 1640+10% FCS. After 24 h, the cells were treated with the compounds: the compounds' solution (200×) was prepared in DMSO 100% and 1 μl/well was added. 5 scalar concentrations for each compound were tested in four replicates. The cells were incubated at 37° C., 5% CO2 for 72 h.
(§2) Colorimetric assay (SRB: sulforhodamine B): cell cultures were fixed with trichloroacetic acid, stained with 0.4% SRB dissolved in 1% acetic acid. Unbound dye was removed by four washes with 1% acetic acid and protein-bound dye was extracted with 10 mM Tris base for determination of optical density in a 96-well microtiter plate reader. IC50 and IC90 (concentration inhibiting cell proliferation by 50 or 90%) were determined by data analysis in the Microsoft Excel 97 program.

[2] = biological target: T1, Pig brain tubulin (Sus scrofa, UniProt P02554); test: Microtubule assembly and disassembly assay (tubulin polymerizing activity); assay type: biochemical; details: 0.5 mg/ml tubulin, 37° C., turbidity at 340 nm; for EC50: effective dose that induces 50% tubulin polymerisation, read-out: ED50 (the source's name); for ED90: effective dose that induces 90% tubulin polymerisation
T1 construct: Pig brain tubulin was prepared by two cycles of assembly and disassembly; from tissue; host or cells: pig brain
T1 sequence (P02554 whole entry): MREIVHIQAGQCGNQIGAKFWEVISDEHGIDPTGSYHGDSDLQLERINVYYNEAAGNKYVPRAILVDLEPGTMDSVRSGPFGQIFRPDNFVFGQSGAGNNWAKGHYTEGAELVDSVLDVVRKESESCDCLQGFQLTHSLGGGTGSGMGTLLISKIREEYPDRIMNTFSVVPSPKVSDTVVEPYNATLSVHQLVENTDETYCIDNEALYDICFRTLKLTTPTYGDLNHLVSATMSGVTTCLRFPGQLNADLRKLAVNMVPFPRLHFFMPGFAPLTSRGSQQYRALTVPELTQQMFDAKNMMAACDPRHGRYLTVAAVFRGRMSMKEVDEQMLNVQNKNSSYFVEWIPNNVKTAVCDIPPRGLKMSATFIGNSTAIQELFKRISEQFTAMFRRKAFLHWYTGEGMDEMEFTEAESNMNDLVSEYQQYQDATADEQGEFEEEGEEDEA
T1 sequence (P02550 whole entry partner): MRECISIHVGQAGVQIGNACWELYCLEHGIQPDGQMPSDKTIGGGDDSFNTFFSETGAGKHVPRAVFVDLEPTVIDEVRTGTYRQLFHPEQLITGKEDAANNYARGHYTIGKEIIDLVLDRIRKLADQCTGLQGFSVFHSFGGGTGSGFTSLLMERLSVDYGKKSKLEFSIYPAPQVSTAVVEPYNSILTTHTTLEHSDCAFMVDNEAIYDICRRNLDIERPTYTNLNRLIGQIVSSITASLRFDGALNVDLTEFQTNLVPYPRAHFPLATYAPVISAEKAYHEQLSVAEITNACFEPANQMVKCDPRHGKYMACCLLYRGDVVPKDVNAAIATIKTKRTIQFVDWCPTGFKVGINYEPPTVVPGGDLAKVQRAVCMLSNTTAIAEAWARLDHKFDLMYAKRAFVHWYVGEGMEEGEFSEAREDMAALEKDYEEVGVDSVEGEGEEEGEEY
Procedure: Pig brain tubulin was prepared by two cycles of assembly and disassembly and it was stored in liquid nitrogen in Microtubule Assembly Buffer (MAB: 0.1 M MES, 2.5 mM EGTA, 0.5 mM MgSO4, 0.1 mM EDTA, 0.1 mM DTT pH 6.4). Assembly was monitored by the method of Gaskin et al. (Gaskin F, Cantor C R, Shelanski M L, 1974,: Turbidimetric studies of the in vitro assembly and disassembly of porcine neurotubules. J. Mol. Biol. 89: 737-758). The cuvette (1 cm path) containing 0.5 mg/ml tubulin and 1 mM GTP was shifted to 37° C. and continuous turbidity measurements were made at 340 nm on a spectrophotometer equipped with an automatic recorder and a thermostatically regulated sample chamber. After 30 min CaCl2 (5 mM) was added and disassembly was monitored for 10 mm as decreased turbidity. Scalar doses of test compounds were monitored at regular intervals of 15 min.
(ED50 and ED90) was calculated on this curve.

[3] = system: Human colon carcinoma HCT116 cells; test: Cytotoxicity on HCT116 tumor cell line; assay type: cell-based
[4] = system: Human colon carcinoma HT29 cells; test: Cytotoxicity on HT29 tumor cell line; assay type: cell-based
Procedure: as §1, §2
Human colon carcinoma HT29 cells were also used to study the cytotoxicity of the compounds of the present invention.

## CC(=O)O[C@@H]1C/C=C\C[C@@H](OC(=O)/C=C/c2cn(C)cn2)C[C@H]2C(C)=CC[C@H](C(C)C)[C@H]2C1 [Example 12, 3-(1-Methyl-1H-imidazol-4-yl)-acrylic acid 11-acetoxy-1-isopropyl-4-methyl-1,2,4a,5,6,7,10,11,12,12a-decahydro-benzocyclodecen-6-yl ester]
[1]; Homo sapiens
  IC50: 4 µM
[2]
  EC50: 2 µM
  ED90: 10.0 µM
[3]; Homo sapiens, HCT-116
  IC50: 12 µM

## CC1=CC[C@H](C(C)C)[C@H]2CC(=O)C/C=C\C[C@@H](OC(=O)/C=C/c3cn(C)cn3)C[C@@H]12 [Example 16, (E)-3-(1-Methyl-1H-imidazol-4-yl)-acrylic acid [(1R,4aR,6R,12aR)-1-isopropyl-4-methyl-11-oxo-1,2,4a,5,6,7,10,11,12,12a-decahydro-benzocyclodecen-6-enyl]ester]
[1]; Homo sapiens
  IC50: 40 µM
[2]
  EC50: 0.2 µM
  ED90: 1.2 µM
[3]; Homo sapiens, HCT-116
  IC50: 35 to 60 µM
[4]; Homo sapiens, HT-29
  IC50: 30 µM

## C=C1C/C=C\C[C@@H](OC(=O)/C=C/c2cn(C)cn2)C[C@H]2C(C)=CC[C@H](C(C)C)[C@H]2C1 [Example 19]
[1]; Homo sapiens
  IC50: 4 µM
[2]
  EC50: 5 µM
  ED90: 16.0 µM
[3]; Homo sapiens, HCT-116
  IC50: 5 µM
[4]; Homo sapiens, HT-29
  IC50: 6 µM

## CO[C@H]1C=CC[C@@H](OC(=O)/C=C/c2cn(C)cn2)C[C@H]2C(C)=CC[C@H](C(C)C)[C@H]2C[C@@H]1OC(=O)C(C)(C)C [Example 27, (E)-3-(1-Methyl-1H-imidazol-4-yl)-acrylic acid [(1R,4aR,6R,10S,11S,12aR)-11-(2,2-dimethyl-propionyloxy)-1-isopropyl-10-methoxy-4-methyl-1,2,4a,5,6,7,10,11,12,12a-decahydro-benzocyclodecen-6-yl}ester]
[1]; Homo sapiens
  IC50: < 5 µM
[2]
  EC50: 3 µM
[3]; Homo sapiens, HCT-116
  IC50: 10 to 25 µM
[4]; Homo sapiens, HT-29
  IC50: 7 µM

## CC(=O)O[C@H]1C=CC[C@@H](OC(=O)/C=C/c2cn(C)cn2)C[C@H]2C(C)=CC[C@H](C(C)C)[C@H]2C[C@@H]1OC(=O)C(C)(C)C [Example 30, (E)-3-(1-Methyl-1H-imidazol-4-yl)-acrylic acid [(1R,4aR,6R,10S,11S,12aR)-10-acetoxy-11-(2,2-dimethyl-propionyloxy)-1-isopropyl-4-methyl-1,2,4a5,6,7,10,11,12,12a-decahydro-benzocyclodecen-6-yl]ester]
[2]
  EC50: 1 µM
  ED90: 1.7 µM

## CC1=CC[C@H](C(C)C)[C@H]2C[C@H](OC(=O)C(C)(C)C)[C@@H](O)C=CC[C@@H](OC(=O)C=Cc3cn(C)cn3)C[C@@H]12 [Example 34, 3-(1-Methyl-1H-imidazol-4-yl)-acrylic acid [(1R,4aR,6R,10S,10S,12aR)-11-(2,2-dimethyl-propionyloxy)-10-hydroxy-1-isopropyl-4-methyl-1,2,4a,5,6,7,10,11,12,12a-decahydro-benzocyclodecen-6-yl}ester]
[1]
  IC50: 4 µM
[2]
  EC50: 1 µM
  ED90: 1.8 µM
[3]
  IC50: 4 µM
[4]
  IC50: 5 µM
